Test results from patent US20230022235A1, “DUAL ANDROGEN RECEPTOR/AKR1C3 INHIBITORS” (The Regents of the University of California, priority 2019, published 2023).
Entries after “also recorded” stand apart in the source; their conditions may differ.

Columns and labels:
[1] = system: C4-2B MDVR cells; assay: RNAseq of genes associated with cancer cell proliferation and survival in C4-2B MDVR cells; assay type: cell-based; conditions: 5 μM, vs DMSO control
Method: In addition, the effect of the compounds on the expression of genes involved in cancer was studied. Enzalutamide resistant C4-2B MDVR cells were treated with 5 μM of compound 1, 2, 5, or 8, or DMSO control.

[2] = system: AR-V7; assay: RNAseq of AR-V7 signature genes in C4-2B MDVR cells; assay type: cell-based; conditions: 5 μM, vs DMSO control
Method: (§1) Next, the effects of the new AR/AKR1C3 inhibitors on AR signaling were studied. […] To further confirm the inhibitory role of the compounds in AR signaling, enzalutamide resistant C4-2B MDVR cells (which have enhanced expression of AR, AR variants, and AKR1C3) were treated with 5 μM compound 1, 5 μM compound 5, or a DMSO control. Total RNA was isolated assessed using RNAseq.

[3] = system: AR; assay: RNAseq of AR signaling genes in C4-2B MDVR cells; assay type: cell-based; conditions: 5 μM, vs DMSO control
Method: as §1

[4] = target: T1, AR (Homo sapiens, UniProt P10275, T878A); assay: DHT-stimulated AR nuclear translocation in LNCaP cells (immunofluorescent staining); assay type: cell-based; conditions: charcoal stripped FBS
T1 construct: endogenous in cells; host or cells: LNCaP
T1 sequence (P10275 1-920 T878A): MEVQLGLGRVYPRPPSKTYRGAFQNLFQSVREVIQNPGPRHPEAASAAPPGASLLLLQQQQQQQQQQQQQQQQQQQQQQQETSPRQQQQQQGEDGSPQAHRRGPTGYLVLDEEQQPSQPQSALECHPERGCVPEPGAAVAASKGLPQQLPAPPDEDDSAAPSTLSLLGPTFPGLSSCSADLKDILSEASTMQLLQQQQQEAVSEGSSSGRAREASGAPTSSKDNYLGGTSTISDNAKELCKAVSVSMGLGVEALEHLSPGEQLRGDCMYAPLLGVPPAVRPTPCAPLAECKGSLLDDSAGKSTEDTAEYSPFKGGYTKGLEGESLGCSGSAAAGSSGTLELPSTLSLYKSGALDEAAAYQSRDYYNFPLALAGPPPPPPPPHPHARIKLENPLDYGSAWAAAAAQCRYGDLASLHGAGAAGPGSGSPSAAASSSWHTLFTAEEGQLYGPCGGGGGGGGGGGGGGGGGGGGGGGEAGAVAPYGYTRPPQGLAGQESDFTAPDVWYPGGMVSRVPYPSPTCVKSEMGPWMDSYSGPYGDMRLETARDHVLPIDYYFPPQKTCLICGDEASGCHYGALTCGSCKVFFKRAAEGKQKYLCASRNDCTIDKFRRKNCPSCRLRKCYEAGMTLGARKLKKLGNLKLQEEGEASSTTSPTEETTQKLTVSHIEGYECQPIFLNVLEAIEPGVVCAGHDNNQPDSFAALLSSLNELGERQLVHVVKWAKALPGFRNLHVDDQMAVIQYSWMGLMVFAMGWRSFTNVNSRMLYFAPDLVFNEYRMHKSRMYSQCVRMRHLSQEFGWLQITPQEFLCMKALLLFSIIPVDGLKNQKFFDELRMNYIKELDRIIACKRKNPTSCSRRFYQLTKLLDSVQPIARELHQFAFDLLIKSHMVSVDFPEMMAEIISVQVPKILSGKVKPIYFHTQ
Method: LNCaP cells cultured in charcoal stripped FBS conditions were treated with DHT and the compounds as indicated. AR expression were visualized by immunofluorescent staining.
as §1

[5] = system: LuCaP35CR tumors; assay: LuCaP35CR PDX model in castrated SCID mice; assay type: in vivo
Method: The LuCaP35CR PDX model was also employed to investigate the effects of compound 1 in vivo. For this model, SCID mice were castrated and implanted with LuCaP35CR tissues. Once tumors were palpable, mice were divided into two groups: control or 20 mg/kg compound 1 administered I.P. 5 days a week for 3 weeks. Tumor volumes were measured twice weekly and mouse weights were monitored. At the end of treatment, tumors and serum were collected for assessment.

[6] = target: T2, AKR1C3 (Homo sapiens, UniProt P42330); assay: Aldo-Keto Reductase (AKR) Activity Assay Kit (Colorimetric) in LNCaP-AKR1C3 cells; assay type: cell-based; set-up: expressed in transfected cells; host or cells: LNCaP-AKR1C3; conditions: 48 hrs
T2 sequence (P42330 1-323): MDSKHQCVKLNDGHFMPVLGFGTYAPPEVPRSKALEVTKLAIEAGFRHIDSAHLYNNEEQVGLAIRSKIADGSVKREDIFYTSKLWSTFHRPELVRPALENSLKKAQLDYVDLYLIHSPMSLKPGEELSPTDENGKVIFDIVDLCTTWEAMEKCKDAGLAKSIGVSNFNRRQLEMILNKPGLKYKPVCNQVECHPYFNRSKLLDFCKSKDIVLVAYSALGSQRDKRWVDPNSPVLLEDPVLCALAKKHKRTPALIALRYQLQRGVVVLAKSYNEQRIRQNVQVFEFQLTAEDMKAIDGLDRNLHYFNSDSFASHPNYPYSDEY
Method: To examine whether compound 1 and compound 2 are useful in inhibiting AKR1C3 activity, LNCaP-AKR1C3 were treated with either compound 1 or compound 2 for 48 hrs. AKR1C3 enzymatic activity was determined by Aldo-Keto Reductase (AKR) Activity Assay Kit (Colorimetric), the results of which are shown in FIG. 2. Similarly, the inhibition of AKR1C3 activity was examined with varying doses of compound 1. LNCaP-AKR1C3 cells were treated with increasing doses of compound 1 for 48 hrs.

[7] = target: T2, AKR1C3; assay: Ex vivo tumor based AKR1C3 enzyme assay (androstenedione conversion to testosterone); assay type: cell-based; conditions: ex vivo tumors, androstenedione 300 nmol/L, testosterone in supernatants
Method: AKR1C3 plays a crucial role in the synthesis of testosterone, by catalyzing the conversion of the adrenal androgens dehydroepiandrosterone (DHEA) and androstenedione (AD) into testosterone. To determine the effects of compound 1 on inhibition of AKR1C3 enzymatic activity an ex vivo tumor based AKR1C3 enzyme assay was conducted. LUCaP35CX tumors, which express high levels of AKR1C3, were digested with 0.1% protease and cultured in medium supplemented with 10% heat-inactivated charcoal-dextran-stripped FBS. After overnight incubation, androstenedione (300 nmol/L) was added with or without compound 1. The supernatants were collected to measure testosterone.

[8] = system: C4-2B MDVR cells; assay: Cell number of enzalutamide-resistant C4-2B MDVR cells; assay type: cell-based; conditions: 48 hrs
Method: C4-2B MDVR cells were treated with increasing doses of compound 1 for 48 hrs.
To evaluate whether compound 1 is an effective inhibitor of anti-androgen resistant cell growth, a series of resistant cells were treated with their respective anti-androgens for 48 hrs. Enzalutamide resistant MDVR cells, abiraterone resistant AbiR cells, apalutamide resistant ApaIR cells, and darolutamide resistant DaroR cells were treated with their respective anti-androgens: enza (20 μM), abi (20 μM), apal (20 μM), darolutamide (20 μM), or compound 1 (5 μM).

[9] = system: VCaP tumors; assay: VCaP tumor model in intact SCID mice; assay type: in vivo; conditions: 20 mg/kg I.P. 5 days a week for 3 weeks
Method: Next the effects of compound 1 in vivo were studied in two separate models. First, intact SCID mice were injected with resistant prostate cancer VCaP cells suspended in matrigel. Once tumors were palpable, mice were divided into two groups: control or 20 mg/kg compound 1 administered I.P. 5 days a week for 3 weeks. Tumor volumes were measured twice weekly and mouse weights were monitored. At the end of treatment, tumors and serum were collected for assessment.

[10] = system: MCF-7 breast cancer cells; assay: Cell number of MCF-7 breast cancer cells; assay type: cell-based; conditions: 48 hrs
[11] = LuCaP35CR PDX, castrated SCID mice, 20 mg/kg I.P. 5 days a week for 3 weeks

Row | SMILES | expression of genes associated with cancer cell proliferation and survival [1] | expression of AR-V7 signature genes [2] | expression of genes associated with AR signaling (AR activity signature genes) [3] | AR nuclear translocation / DHT-stimulated AR nuclear expression [4] | intratumoral testosterone levels [5, 11] | mouse body weight [5, 11] | serum PSA [5, 11] | tumor volume / tumor growth ([5]; LuCaP35CR PDX, castrated SCID mice, 20 mg/kg I.P. 5 days a week for 3 weeks, 20 mg/kg) | tolerability ([5]; conclusion from VCaP and LuCaP35CR mouse models, 20 mg/kg I.P.) | AKR1C3 enzymatic activity [6] | AKR1C3 enzymatic activity, increasing doses ([6]; increasing doses) | androstenedione conversion to testosterone [7] | total cell number (cell growth) [8] | total cell number (cell growth), increasing doses ([8]; increasing doses) | serum PSA ([9]; end of treatment) | mouse body weight ([9]; vs control) | tumor volume / tumor growth ([9]; vs control, 20 mg/kg) | total cell number (cell growth), increasing doses [10]
1 | COc1ccc(C(=O)c2ccc(O)c(C(=O)Nc3cc(C(F)(F)F)cc(C(F)(F)F)c3)c2)cc1 [compound 8, N-(3,5-Bis(trifluoromethyl)phenyl)-2-hydroxy-5-(4-methoxybenzoyl)benzamide] | greatly reduced expression of genes associated with cancer cell proliferation and survival; also recorded: inhibit genes associated with cancer cell proliferation and survival | – | – | – | – | – | – | – | – | – | – | – | – | – | – | – | – | –
2 | COc1ccc(Cc2ccc(O)c(C(=O)Nc3cc(C(F)(F)F)cc(C(F)(F)F)c3)c2)cc1 [compound 5, N-(3,5-bis(trifluoromethyl)phenyl)-2-hydroxy-5-(4-methoxybenzyl)benzamide] | greatly reduced expression of genes associated with cancer cell proliferation and survival; also recorded: inhibit genes associated with cancer cell proliferation and survival | reduced expression of AR-V7 signature genes; also recorded: inhibit AR-V7 activity signature genes | greatly reduced expression of genes associated with AR signaling; also recorded: inhibit AR activity signature genes | capable of inhibiting DHT-stimulated AR nuclear expression; also recorded: inhibit AR nuclear translocation | – | – | – | – | – | – | – | – | – | – | – | – | – | –
3 | O=C(Nc1cc(C(F)(F)F)cc(C(F)(F)F)c1)c1cc(Cc2ccccc2)ccc1O [compound 1, 5-benzyl-N-(3,5-bis(trifluoromethyl)phenyl)-2-hydroxybenzamide] | greatly reduced expression of genes associated with cancer cell proliferation and survival; also recorded: inhibit genes associated with cancer cell proliferation and survival | reduced expression of AR-V7 signature genes; also recorded: inhibit AR-V7 activity signature genes | greatly reduced expression of genes associated with AR signaling; also recorded: inhibit AR activity signature genes | capable of inhibiting DHT-stimulated AR nuclear expression; also recorded: inhibit AR nuclear translocation | significantly reduced intratumoral testosterone levels | no effect on mouse body weight | reduced | significantly decreased tumor volumes; also recorded: inhibits LuCaP35CR tumor growth | well-tolerated | inhibit AKR1C3 activity | inhibited in dose-dependent fashion | dose-dependent inhibition; also recorded: inhibits the conversion from androstenedione to testosterone | inhibit cell growth | inhibited in dose-dependent fashion | significantly decreased | no effect on mouse body weight | significantly decreased tumor volume; also recorded: inhibits VCaP tumor growth | inhibited in dose dependent fashion
